The text below walks through data of patent US10821115B2, “Compounds that inhibit Mcl-1 protein” (priority 2017, dated 2020).

For assay [1], the target named is recombinant human Mcl-1 (residues 171-327) / Bim interaction (Homo sapiens (Human), UniProt Q07820). Kind of assay: biochemical. It counts as binding. The following applies: read-out: Mcl-1 HTRF IC50.
Assay [2] relates to human multiple myeloma cell line, OPM-2. Kind of assay: Cell viability assay (OPM-2 10 FBS), CellTiter-Glo. It counts as cell-based. Summed up:
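Serially diluted test compounds are incubated 16 h with cells (3000/well) in RPMI 1640 supplemented with 10% FBS. Viability is then measured by luminescence and IC50 calculated by 4-parameter logistic fit.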

The mark [3] stands for this setting: 0.1 nM Mcl-1(171-327), 0.05 nM biotin-Bim (51-76).
Where [4] appears, read: Homo sapiens, OPM-2, 16 h, read-out: OPM-2 10% FBS IC50 IP, OPM-2 cells, 10% FBS, 16 h incubation.
[5] abbreviates: TR-FRET, Mcl-1(171-327) / biotin-Bim (51-76).
Setting [6] is: Homo sapiens, OPM-2, 16 h, read-out: OPM-2 10% FBS IC50 IP, OPM-2 cells, 10% FBS, 16 h, CellTiter-Glo.
The mark [7] stands for this setting: read-out: OPM-2 10% FBS IC50 IP, OPM-2 cells, 10% FBS, 16 h, CellTiter-Glo.

The structures appear in SMILES notation. Where two headings read alike, the source gives them in different places.

recombinant human Mcl-1 (residues 171-327) / Bim interaction, sequence (Q07820 171-327): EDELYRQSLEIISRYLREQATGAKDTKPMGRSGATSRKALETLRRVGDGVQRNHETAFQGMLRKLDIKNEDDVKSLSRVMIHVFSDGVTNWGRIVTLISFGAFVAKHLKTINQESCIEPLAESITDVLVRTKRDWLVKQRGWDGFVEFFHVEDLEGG

Take `CO[C@@]1(CN2CC(C)(N(C)C)C2)/C=C/[C@H](C)[C@H](C)CS(=O)(=O)NC(=O)c2ccc3c(c2)N(C[C@@H]2CC[C@H]21)C[C@@]1(CCCc2cc(Cl)ccc21)CO3` [Example 162, (1S,3′R,6′R,7′S,8′E,10′S,11′S)-6-chloro-7′-((3-(dimethylamino)-3-methyl-1-azetidinyl)methyl)-7′-methoxy-10′,11′-dimethyl-3,4-dihydro-2H,15′H-spiro[naphthalene-1,22′-[20]oxa[13]thia[1,14]diazatetracyclo [14.7.2.0~3,6~.0~19,24~]pentacosa[8,16,18,24]tetraen]-15′-one 13′,13′-dioxide]: the IC50 worked out at 0.072 nM in assay [1] (setting [3]) and 55 nM in assay [2] (setting [4]).
Take `C[C@@H]1[C@@H](C)CCC[C@@](O)(CO)[C@@H]2CC[C@H]2CN2C[C@@]3(CCCc4cc(Cl)ccc43)COc3ccc(cc32)C(=O)NS1(=O)=O` [Example 100053, (1S,3′R,6′R,7′S,11′S,12′R)-6-chloro-7′-hydroxy-7′-(hydroxymethyl)-11′,12′-dimethyl-3,4-dihydro-2H,15′H-spiro[naphthalene-1,22′-[20]oxa[13]thia[1,14]diazatetracyclo [14.7.2.0~3,6~.0~19,24~]pentacosa[16,18,24]trien]-15′-one 13′,13′-dioxide]: the IC50 was determined as 0.294 nM in assay [1] (setting [5]) and 609 nM in assay [2] (setting [6]).
With `C[C@@H]1[C@@H](C)C/C=C/[C@@](O)(C#CCC2CCOCC2)[C@@H]2CC[C@H]2CN2C[C@@]3(CCCc4cc(Cl)ccc43)COc3ccc(cc32)C(=O)NS1(=O)=O` [Example 100432, (1S,3′R,6′R,7′S,8′E,11′S,12′R)-6-chloro-7′-hydroxy-11′,12′-dimethyl-7′-(3-(tetrahydro-2H-pyran-4-yl)-1-propyn-1-yl)-3,4-dihydro-2H,15′H-spiro[naphthalene-1,22′-[20]oxa[13]thia[1,14]diazatetracyclo [14.7.2.0~3,6~.0~19,24~]pentacosa[8,16,18,24]tetraen]-15′-one 13′,13′-dioxide], the IC50 in assay [1] (setting [5]) stood at 0.228 nM; in assay [2] (setting [6]), 711 nM.
With `CO[C@@]1(CN(C)C)/C=C/C[C@H](C)[C@@H](C)S(=O)(=O)NC(=O)c2ccc3c(c2)N(C[C@@H]2CC[C@H]21)C[C@@]1(CCCc2cc(Cl)ccc21)CO3` [Example 66, (1S,3′R,6′R,7′S,8′E,11′S,12′R)-6-chloro-7′-((dimethylamino)methyl)-7′-methoxy-11′,12′-dimethyl-3,4-dihydro-2H,15′H-spiro[naphthalene-1,22′-[20]oxa[13]thia[1,14]diazatetracyclo [14.7.2.0~3,6~.0~19,24~]pentacosa[8,16,18,24]tetraen]-15′-one 13′,13′-dioxide], the values for the IC50 in assay [1] (setting [3]) and in assay [2] (setting [4]) were 0.246 nM and 318 nM, respectively.
Take `C[C@@H]1[C@@H](C)C/C=C/[C@@](CC(=O)N(C)C)(OCCN2CCOCC2)[C@@H]2CC[C@H]2CN2C[C@@]3(CCCc4cc(Cl)ccc43)COc3ccc(cc32)C(=O)NS1(=O)=O` (single isomer, unassigned) [Example 100310]: the IC50 in assay [1] (setting [5]) amounted to 0.152 nM; in assay [2] (setting [6]) it was 120 nM.
For `C#C[C@@]1(OCCN2CCOCC2)/C=C/C[C@H](C)[C@@H](C)S(=O)(=O)NC(=O)c2ccc3c(c2)N(C[C@@H]2CC[C@H]21)C[C@@]1(CCCc2cc(Cl)ccc21)CO3` [Example 100505, (1S,3′R,6′R,7′R,8′E,11′S,12′R)-6-chloro-7′-ethynyl-11′,12′-dimethyl-7′-(2-(4-morpholinyl)ethoxy)-3,4-dihydro-2H,15′H-spiro[naphthalene-1,22′-[20]oxa[13]thia[1,14]diazatetracyclo [14.7.2.0~3,6~.0~19,24~]pentacosa[8,16,18,24]tetraen]-15′-one 13′,13′-dioxide] the same measures were 0.165 nM and 137 nM.
On to `CO[C@@]1(CN2CCN3CCCC[C@@H]3C2)/C=C/[C@H](C)[C@H](C)CS(=O)(=O)NC(=O)c2ccc3c(c2)N(C[C@@H]2CC[C@H]21)C[C@@]1(CCCc2cc(Cl)ccc21)CO3` [Example 163, (1S,3′R,6′R,7′S,8′E,10′S,11′S)-6-chloro-7′-methoxy-10′,11′-dimethyl-7′-((9aR)-octahydro-2H-pyrido[1,2-a]pyrazin-2-ylmethyl)-3,4-dihydro-2H,15′H-spiro[naphthalene-1,22′-[20]oxa[13]thia[1,14]diazatetracyclo [14.7.2.0~3,6~.0~19,24~]pentacosa[8,16,18,24]tetraen]-15′-one 13′,13′-dioxide], for which the IC50 was 0.179 nM in assay [1] (setting [3]) and 130 nM in assay [2] (setting [4]).
Consider `CO[C@@]1(CC(=O)c2ccccn2)/C=C/C[C@H](C)[C@@H](C)S(=O)(=O)NC(=O)c2ccc3c(c2)N(C[C@@H]2CC[C@H]21)C[C@@]1(CCCc2cc(Cl)ccc21)CO3` [Example 100491, (1S,3′R,6′R,7′S,8′E,11′S,12′R)-6-chloro-7′-methoxy-11′,12′-dimethyl-7′-(2-oxo-2-(2-pyridinyl)ethyl)-3,4-dihydro-2H,15′H-spiro[naphthalene-1,22′-[20]oxa[13]thia[1,14]diazatetracyclo [14.7.2.0~3,6~.0~19,24~]pentacosa[8,16,18,24]tetraen]-15′-one 13′,13′-dioxide], for which the IC50 came to 0.208 nM in assay [1] (setting [5]) and 308 nM in assay [2] (setting [6]).
On to `CO[C@@]1(CS(=O)(=O)C(C)C)/C=C/C[C@H](C)[C@@H](C)S(=O)(=O)NC(=O)c2ccc3c(c2)N(C[C@@H]2CC[C@H]21)C[C@@]1(CCCc2cc(Cl)ccc21)CO3` (stereo in doubt) [Example 100315, (1S,3′R,6′R,7′S,8′E,11′S,12′R)-6-chloro-7′-methoxy-11′,12′-dimethyl-7′-((2-propanylsulfonyl)methyl)-3,4-dihydro-2H,15′H-spiro[naphthalene-1,22′-[20]oxa[13]thia[1,14]diazatetracyclo [147.2.0~3,6~.0~19,24~]pentacosa[8,16,18,24]tetraen]-15′-one 13′,13′-dioxide], for which the half-maximal inhibitory concentration (IC50) in assay [1] (setting [5]) came to 0.2 nM; in assay [2] (setting [7]), 153 nM.
For `C[C@@H]1[C@@H](C)C/C=C/[C@](C)(OCCN2CCOCC2)[C@@H]2CC[C@H]2CN2C[C@@]3(CCCc4cc(Cl)ccc43)COc3ccc(cc32)C(=O)NS1(=O)=O` [Example 100007, (1 S,3′R,6′R,7′S,8′E,11′S, 12′R)-6-chloro-7′,11′,12′-trimethyl-7′-(2-(4-morpholinyl)ethoxy)-3,4-dihydro-2H, 15′H-spiro[naphthalene-1,22′-[20]oxa[13]thia[1,14]diazatetracyclo[14.7.2.0-3,6˜.0˜19,24˜]pentacosa[8,16,18,24]tetraen]-15′-one 13′,13′-dioxide], the values for the IC50 in assay [1] (setting [5]) and in assay [2] (setting [6]) were 0.367 nM and 142 nM, respectively.
As for `CO[C@@]1(CN2CCc3nocc3C2)/C=C/C[C@H](C)[C@@H](C)S(=O)(=O)NC(=O)c2ccc3c(c2)N(C[C@@H]2CC[C@H]21)C[C@@]1(CCCc2cc(Cl)ccc21)CO3` [Example 200], the IC50 in assay [1] (setting [3]) turned out to be 0.315 nM; in assay [2] (setting [4]), 583 nM.
For the compound `CO[C@@]1(Cc2cc(C)ccn2)/C=C/C[C@H](C)[C@@H](C)S(=O)(=O)NC(=O)c2ccc3c(c2)N(C[C@@H]2CC[C@H]21)C[C@@]1(CCCc2cc(Cl)ccc21)CO3` [Example 100560, (1S,3′R,6′R,7′S,8′E,11′S,12′R)-6-chloro-7′-methoxy-11′,12′-dimethyl-7′-((4-methyl-2-pyridinyl)methyl)-3,4-dihydro-2H,15′H-spiro[naphthalene-1,22′-[20]oxa[13]thia[1,14]diazatetracyclo [14.7.2.0~3,6~.0~19,24~]pentacosa[8,16,18,24]tetraen]-15′-one 13′,13′-dioxide], the figures for the IC50 in assay [1] (setting [5]) and in assay [2] (setting [6]) were 0.041 nM and 2020 nM, respectively.
For `CO[C@@]1(CC(=O)c2ccccc2)/C=C/C[C@H](C)[C@@H](C)S(=O)(=O)NC(=O)c2ccc3c(c2)N(C[C@@H]2CC[C@H]21)C[C@@]1(CCCc2cc(Cl)ccc21)CO3` [Example 100458, (1S,3′R,6′R,7′S,8′E,11′S,12′R)-6-chloro-7′-methoxy-11′,12′-dimethyl-7′-(2-oxo-2-phenylethyl)-3,4-dihydro-2H,15′H-spiro[naphthalene-1,22′-[20]oxa[13]thia[1,14]diazatetracyclo [14.7.2.0~3,6~.0~19,24~]pentacosa[8,16,18,24]tetraen]-15′-one 13′,13′-dioxide] the same measures were 0.21 nM and 418 nM.
Taken in the same sequence, the figures for `C[C@@H]1[C@@H](C)CCC[C@]2(CC(N(C)C)=NO2)[C@@H]2CC[C@H]2CN2C[C@@]3(CCCc4cc(Cl)ccc43)COc3ccc(cc32)C(=O)NS1(=O)=O` [Example 100136, (1S,3′R,6′R,7′S,11′S,12′R)-6-chloro-3″- (dimethylamino)-11′,12′-dimethyl-3,4-dihydro-2H,4″H,15′H-dispiro[naphthalene-1,22′-[20]oxa[13]thia[1,14]diazatetracyclo [14.7.2.0~3,6~.0~19,24~]pentacosa[16,18,24]triene-7′,5″-[1,2]oxazol]-15′-one 13′,13′-dioxide] were 0.368 nM and 556 nM.
In the case of `C[C@@H]1[C@@H](C)C/C=C/[C@@](O)(CC(=O)N2CCCCC2)[C@@H]2CC[C@H]2CN2C[C@@]3(CCCc4cc(Cl)ccc43)COc3ccc(cc32)C(=O)NS1(=O)=O` [Example 100258, (1S,3′R,6′R,7′S,8′E,11′S,12′R)-6-chloro-7′-hydroxy-11′,12′-dimethyl-7′-(2-oxo-2-(1-piperidinyl)ethyl)-3,4-dihydro-2H,15′H-spiro[naphthalene-1,22′-[20]oxa[13]thia[1,14]diazatetracyclo [14.7.2.0~3,6~.0~19,24~]pentacosa[8,16,18,24]tetraen]-15′-one 13′,13′-dioxide], the figures for the IC50 in assay [1] (setting [5]) and in assay [2] (setting [7]) were 0.553 nM and 519 nM, respectively.
